Structures can show the parent of a compound that is named as a salt.
Legend:
renal blood flow = renal blood flow in chronically instrumented (flow probe) dogs; type: in vivo, female mongrel dogs; conditions: oral
Excerpt: (§1) The renal blood flow of the compounds of Formula 1 was readily measured in female mongrel dogs which underwent chronic implantation of a renal flow probe and arterial Vascular-Acess-Port. Briefly, the dogs were anesthetizied and using standard asceptic techniques, a Transonic flow probe was placed around the left renal artery and the connector tunneled subcutaneously to the back of the dog. The Vascular-Access-Port was placed in the left femoral artery and the access portion tacked to the underlying muscle in the area of the paralumbar-fossa. The patency of the Vascular Access Port was maintained by weekly flushing of the catheter and locking with a 50% glucose 500 U/ml heparinized solution. Dogs were trained to lie quietly restrained on a board and the connector portion of the flow probe was exteriorized under local anesthesia and connected to a Transonic flowmeter. Renal blood flow was recorded continuously on a Gilson chart recorder. Mean arterial pressure was monitored directly from the Vascular-Access-Port using a 23 gauge butterfly. Mean arterial blood pressure and renal blood flow were recorded before and for 6 hr. after the oral or i.v. administration of the R-enantiomers of the parent compound (fenoldopam) and the prodrug of fenoldopam. At the end of the experiment, the flow probe connector was returned to its subcutaneous position and the skin incision closed with chromic gut and skin staples. The VAP was again flushed and a fresh heparin glucose lock established. Standard sterile procedures followed during the removal and replacement of the flow probe connector.
The effect was transient and renal blood flow had returned to control values within 60 minutes.

[1] = plasma fenoldopam levels in dogs; type: in vivo, female mongrel dogs
Excerpt: as §1
During the experiment post drug blood samples were withdrawn periodically in order to determine the plasma levels of the parent drug, i.e., fenoldopam plasma levels.

[2] = cited from earlier work

SMILES: CCNC(=O)Oc1ccc([C@H]2CNCCc3c2cc(OC(=O)NCC)c(OC(=O)NCC)c3Cl)cc1 [Example 3, (R)-6-chloro-7,8-diethylcarbamoyl-(4'-ethylcarbamoylphenyl)-2,3,4,5-tetrahydro-1H-3-benzazepine hydrochloride]
- duration of sustained increase in renal blood flow (renal blood flow; dogs): 4 to 6 h
- duration of sustained increase in plasma fenoldopam ([1]; oral, dogs): 4 to 6 h

SMILES: Oc1ccc([C@H]2CNCCc3c2cc(O)c(O)c3Cl)cc1 [R-6-chloro-7,8-dihydroxy-1-(4'-hydroxyphenyl)-2,3,4,5-tetrahydro-1H-3-benzazepine]
- renal blood flow effect in words (renal blood flow; 4 dogs): transient
- time for renal blood flow to return to control values (renal blood flow; 4 dogs): ≤ 60 min
- increase in renal blood flow (renal blood flow; 4 dogs, significant increase): 80%
- Tmax ([1]; dog, plasma, oral, 4 dogs, read-out: time of peak plasma fenoldopam level (converted)): 5 min

SMILES: Oc1ccc(C2CNCCc3c2cc(O)c(O)c3Cl)cc1 (centres unmarked) [fenoldopam, 6-chloro-7,8-dihydroxy-1-(4-hydroxyphenyl) 2,3,4,5-tetrahdyro-1H-3-benzazepine]
- initial peak plasma level ([2]; in vivo, po): initial high peak plasma level
- bioavailability ([2]; oral): low
- first pass metabolism ([2]; oral): high
- half life ([2]; reportedly): short
- half-life ([1]; dog, plasma, after oral administration of fenoldopam, dogs): 12 min

Source: patent US4861771A, “Carbamates of 6-chloro-7,8-dihydroxy-1-(4'-hydroxyphenyl)-2,3,4,5-tetrahydro-1H-3-benz azepine as prodrugs” (priority 1989, dated 1989)
